Results on 3 compounds are retold here after publication PMC8979514 (Journal of Enzyme Inhibition and Medicinal Chemistry, 2022).

For data set [1], the target named is T1, Acetylcholinesterase (eeAChE, E.C. 3.1.1.7) (Electrophorus electricus, UniProt O42275).
T1 construct: purchased Sigma Aldrich
The experiment in a line: biochemical. Format: biochemical, electric eel. As to conditions: for IC50: eeAChE; for Selectivity IC50(eeAChE)/ IC50(BChE): ratio of IC50 values. The procedure: (§1) [33] Inhibitory activity was tested at room temperature on 96-well plate using Ellman’s method. Lyophilised powders of AChE and BChE were dissolved in phosphate buffer (pH 7.5, 0.1 M) with 1% BSA.
(§2) Each well was filled to a total volume of 330 µL. The content inculded 285 µL of phosphate buffer, 5 µL 2 units/mL of eeAChE/BChE, 10 µL 0.01 M of DTNB, 10 µl of tested compound (for the control wells 10 µL of the phosphate buffer instead of tested compound) and 20 µL (7.5 mM) ATCh/BTCh. The hydrolysis of ATCh/BTCh was initiated by adding it to the well directly before the measurement. The absorbance was recorded at 1 min intervals for 8 min in total. The percent of inhibition was calculated by nonlinear regression analysis of the response–concentration (log) curve as a percentage of the reaction rate of the tested compounds over the control. Data analysis was performed by using GraphPad Prism 5.0 Software to give the IC50 values. The experiment was carried out in triplicate.

The nature of data set [2]: in vitro. Format: cell-based, human. The settings on record: human. How it is done: (§3) Human neuroblastoma SH-SY5Y and human liver hepatocellular HepG2 cell lines were purchased from the American Type Culture Collections (ATCC). SH-SY5Y cells were cultured in a Dulbecco’s Modified Eagle Medium (DMEM) supplemented with Ham F12 medium (ratio 1:1), whereas HepG2 cells in Eagle’s Minimum Essential Medium (EMEM). Additionally, all culture medium was supplemented with 10% foetal bovine serum (FBS), streptomycin (100 µg/mL) and penicillin (100 U/mL). The cells were seeded into flasks containing supplemented medium and maintained in a humidified atmosphere of 5% CO2 and 95% air at 37 °C. The cell viability assay was performed in confluence of the cells in serum free medium (without FBS) was 80–90%.
(§4) […]. SH-SY5Y cells and HepG2 cells were seeded on 96-well plate with a density of 27–29 × 10^3 cells/well and 12–14 × 10^3/well respectively. […]. The DMSO concentration of every well in final dilutions was equal to or less than 0.1%. After incubation with compounds, MTT was added and 2 h later, the absorbance was measured at 492 nm. The result was expressed as the percentage of control cells (cultured in serum-free medium containing 0.1% of DMSO) which was set to 100%. The MTT test was performed in three independent replications. Data analysis was performed by using GraphPad Prism 5.0 Software.
(§5) . HepG2 is a commonly used in vitro model for the investigation of hepatocytotoxic effect of xenobiotics [40]^,[41]. In our study, we evaluated the toxicity of our new analogs against […]. […]

A short description of data set [3]: in vitro. Format: cell-based, human. The settings on record: human. How it is done:
as §3, §4
(§6) SH-SY5Y a standard cell line used for determining neurocytotoxic effect of potential drug. Moreover it is well-established in vitro model of neurodegenerative disorders. […].
This is another data set of the same source.

A further data set concerns SH-SY5Y cells. The experiment in a line: in vitro. Format: cell-based, human. The settings on record: 100 µM, 24 h incubation, MTT, mean ± SD. How it is done: as §3, §4, §6
Data set [4] addresses T2, butyrylcholinesterase (BChE, E.C. 3.1.1.8) (Equus caballus, UniProt P81908).
T2 construct: purchased Sigma Aldrich
The experiment in a line: biochemical. Set-up: species or system equine serum. The settings on record: BChE from equine serum. The procedure:
as §1, §2

For the next data set, the system named is HepG2 cells. The data set is described as follows: in vitro. Format: cell-based, human. As to conditions: HepG2 cells. How it is done: as §3, §4, §5
For data set [5] the following is noted: cited from earlier work.
[6] abbreviates: Ellman's method, phosphate buffer pH 7.5, room temperature, read-out: IC50 AChE.
Where [7] appears, read: value in brackets under the IC50, read-out: pIC50 ± S.E.M. AChE (converted).
[8] abbreviates: MTT, 24 h incubation, read-out: Cytotoxicity on HepG2 cells IC50.
[9] abbreviates: 12.5 µM, 24 h incubation, MTT, mean ± SD, read-out: Cells viability of SH-SY5Y cell line (% of control).
[10] abbreviates: 50 µM, 24 h incubation, MTT, mean ± SD, read-out: Cells viability of SH-SY5Y cell line (% of control).
Setting [11] is: 100 µM, 24 h incubation, MTT, mean ± SD, read-out: Cells viability of SH-SY5Y cell line (% of control).
The mark [12] stands for this setting: Ellman's method, phosphate buffer pH 7.5, room temperature, read-out: IC50 BChE.
Setting [13] is: value in brackets under the IC50, read-out: pIC50 ± S.E.M. BChE (converted).
[14] abbreviates: Cells viability of SH-SY5Y cell line (% of control).

Structures are written as SMILES. Read-outs that look alike come from different tables or passages of the source. Where only a bound is given, the exact number is not on record here.

What is called viability is a read-out of living cells in per cent, often relative to untreated cells.

T2 sequence (P81908 whole entry): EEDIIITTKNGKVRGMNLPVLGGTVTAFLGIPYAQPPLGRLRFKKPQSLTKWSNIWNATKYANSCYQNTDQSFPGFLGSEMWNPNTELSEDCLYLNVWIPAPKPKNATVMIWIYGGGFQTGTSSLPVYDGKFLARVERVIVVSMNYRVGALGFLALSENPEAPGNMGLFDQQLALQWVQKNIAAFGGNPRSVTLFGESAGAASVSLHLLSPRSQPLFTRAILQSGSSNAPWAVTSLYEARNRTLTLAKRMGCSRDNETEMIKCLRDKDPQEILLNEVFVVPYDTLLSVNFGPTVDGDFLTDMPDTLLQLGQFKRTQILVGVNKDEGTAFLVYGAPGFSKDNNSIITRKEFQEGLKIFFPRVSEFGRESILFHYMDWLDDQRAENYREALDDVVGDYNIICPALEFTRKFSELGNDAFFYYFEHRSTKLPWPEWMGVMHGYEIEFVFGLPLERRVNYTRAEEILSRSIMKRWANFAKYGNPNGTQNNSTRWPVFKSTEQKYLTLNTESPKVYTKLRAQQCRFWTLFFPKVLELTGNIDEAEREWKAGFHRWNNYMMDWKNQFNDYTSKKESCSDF
T1 sequence (O42275 24-633): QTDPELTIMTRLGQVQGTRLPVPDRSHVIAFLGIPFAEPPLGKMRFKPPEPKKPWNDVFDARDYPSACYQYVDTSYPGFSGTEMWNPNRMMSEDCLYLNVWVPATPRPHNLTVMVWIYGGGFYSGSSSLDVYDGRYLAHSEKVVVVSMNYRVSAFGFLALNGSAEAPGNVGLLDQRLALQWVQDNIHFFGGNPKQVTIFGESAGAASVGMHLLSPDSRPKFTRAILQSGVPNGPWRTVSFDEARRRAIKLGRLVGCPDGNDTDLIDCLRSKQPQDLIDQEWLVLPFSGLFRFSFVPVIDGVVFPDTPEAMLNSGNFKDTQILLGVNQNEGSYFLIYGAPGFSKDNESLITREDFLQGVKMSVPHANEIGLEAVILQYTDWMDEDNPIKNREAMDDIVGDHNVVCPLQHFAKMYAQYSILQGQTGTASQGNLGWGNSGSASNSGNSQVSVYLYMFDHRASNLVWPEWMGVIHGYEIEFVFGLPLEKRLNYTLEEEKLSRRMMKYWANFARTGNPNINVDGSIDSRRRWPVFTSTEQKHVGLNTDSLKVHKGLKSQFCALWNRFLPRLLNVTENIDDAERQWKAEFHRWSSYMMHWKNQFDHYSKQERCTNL

With `CCOP(=O)(OCC)OCCCNc1c2c(nc3ccccc13)CCCC2` [Compound 16, Diethyl(3-((1,2,3,4-tetrahydroacridin-9-yl)amino)propyl)phosphate], the IC50 in data set [1] (setting [6]) was 246 nM; in data set [1] (setting [7]), 245 nM; in the data set “in vitro [2]” (setting [8]), 114 µM; in data set [4] (setting [12]), 17.1 nM; in data set [4] (setting [13]), 17.1 nM. For the same compound, in data set [1], the “Selectivity IC50(eeAChE)/ IC50(BChE)” value is 14.36. The viability at 12.5 µM in the data set “in vitro [3]” (setting [9]) was 88.1 ± 7.8%. For the same compound, the viability at 50 µM in “in vitro [3]” (setting [10]) was 80 ± 7.7%. For the same compound, the viability at 100 µM in the data set “in vitro [3]” (setting [11]) came to 83.5%. Besides, the “Cells viability of SH-SY5Y cell line (% of control)” value with SH-SY5Y cells is 83.47 ± 8.6 % of control.
`CCOP(=O)(OCC)OCCNCCNc1c2c(nc3ccccc13)CCCC2` [Compound 19, Diethyl(2-((2-((1,2,3,4-tetrahydroacridin-9-yl)amino)ethyl)amino)ethyl)phosphate]: the IC50 was 677 nM in data set [1] (setting [6]); 676 nM in data set [1] (setting [7]); greater than 600 µM in “in vitro [2]” (setting [8]); 111 nM in data set [4] (setting [12]); 112 nM in data set [4] (setting [13]). The “Selectivity IC50(eeAChE)/ IC50(BChE)” value in data set [1] came to 6.08. The “hepatocytotoxicity in MTT assay (in words)” value in the data set on HepG2 cells was “lack of hepatocytotoxicity”. For the same compound, the viability at 12.5 µM in the data set “in vitro [3]” (setting [9]) was found to be 85.5 ± 12.6%. Moreover, in “in vitro [3]” (setting [10]), the viability at 50 µM stood at 82.6 ± 3.2%. Also, the viability at 100 µM in the data set “in vitro [3]” (setting [11]) turned out to be 81.1%. For the same compound, the “Cells viability of SH-SY5Y cell line (% of control)” value in the data set on SH-SY5Y cells is recorded as 81.12 ± 5.0 % of control.
`Nc1c2c(nc3ccccc13)CCCC2` [Tacrine, 9-amino-1,2,3,4-tetrahydroacridine, reference compound] returned an IC50 in “in vitro [2]” of 190 µM. Further, in “in vitro [3]” (setting [14]), the viability at 12.5 µM came out at 98.7 ± 4.5%, the viability at 50 µM amounted to 97.2 ± 2.1% and the viability at 100 µM was 68.9 ± 2.9%. The “bioavailability of the oral formulation” value in data set [5] is on record as 9.9–36.4%.
